Assay results from PMC11079029, “Intramolecular autoinhibition regulates the selectivity of PRPF40A tandem WW domains for proline-rich motifs” (Nature Communications, 2024).
Where two headings read alike, the source gives them in different places.

Key:
[1] = tested on: GFP-tagged PRPF40A-Nter-MUT; experiment: SILAC GFP-immunoprecipitation with quantitative mass spectrometry, mutant construct; format: binding, human (Hela cells); conditions: quantitative MS, Hela cells, protein by gene name
Description: The PRPF40A N-terminal region (isoform 2, residues 1-221) was PCR-amplified from RPE1 cDNA (ATCC, Cat# CRL-4000) cDNA. The sequence was amplified in two fragments and both fragments were combined by overhang. All PCRs were carried out using Q5 Polymerase (NEB) according to manufacturer’s protocol. The resulting PRPF40A N-terminal region was cloned into a GFP-expressing pcDNA5 vector (see pcDNA5 GFP vector in ref. [28]) using Q5 Site-Directed Mutagenesis Kit (NEB). Nter-MUT, containing the PPVP/PALPP motifs changed to AAAA/AAAAA, was obtained by mutating the N-ter-WW12-containing plasmid with Q5 site-directed mutagenesis. Plasmids were transformed into DH5alpha chemically competent cells. After culturing, DNA isolation was performed with either ZymoPURE Plasmid Miniprep Kit (Zymo Research) or QIAGEN Plasmid Plus Midi Kit (Qiagen). The sequence was confirmed by Sanger Sequencing (GATC Eurofins). All used oligonucleotides are shown in Supplementary Table 6.
Hela cells (ATCC, Cat# CCL-2, RRID:CVCL_0030) were cultured in DMEM SILAC medium (Thermo Fisher) supplemented with 10% filtered FBS (Sigma-Aldrich) and 1% penicillin-streptomycin (Thermo-Fisher). The SILAC medium contains either light (Arg0, Lys0), medium (Arg6, Lys4) or heavy (Arg10, Lys8) isotopes (Cambridge Isotopes Laboratories). Hela cells were cultivated for 14 days in SILAC medium to assure sufficient isotope incorporation. For transfection, 7 × 10^6 Hela cells were seeded in a 15 cm culture dish in 20 ml of respective SILAC medium and grown for 24 h. The cells were then transfected with 20 µg of plasmids expressing either GFP (Control), GFP-tagged N-ext-WW12 or GFP-tagged-N-ext-WW12-MUT utilizing 64 µl FuGENE (Promega) (ratio 1:3.2), according to manufacturer’s protocol.
24 h post-transfection, cells were washed twice in ice-cold PBS and harvested in 1 ml mRIPA buffer (50 mM Tris, 150 mM NaCl, 1 mM EDTA, 1% NP-40, 0.1% Na-deoxycholate), supplemented with 2 µl Turbo-DNase (Thermo Fisher) and 3 µl protease-inhibitor cocktail cOmplete (Sigma-Aldrich). Cell lysates were cleared by centrifugation at 16,000 × g, 4 °C, 15 min and concentration was measured using Pierce BCA Protein Assay kit (Thermo Scientific). The expressed constructs were pulled down by incubating 2.5 mg of lysate with 20 μl GFP-nanobody agarose beads (ChromoTek, GTA-20) for 1 h at 4 °C under constant agitation. Subsequently, beads were washed three times with mRIPA buffer without supplements, then eluted in 1X NuPAGE LDS sample buffer (Thermo Scientific). To detach the proteins from the beads, the eluate was heated to 70 °C for 10 min To evaluate the success of the immunoprecipitation, input (1%) and IP samples were analyzed on a NuPAGE 4–12% Bis-Tris-Acrylamide gel (Thermo Fisher) using NuPAGE MOPS SDS running buffer (Thermo Fisher). Proteins were stained using Sypro Ruby protein gel stain (Thermo Fisher) according to manufacturer’s protocol.
The eluted proteins of three SILAC states (light, medium, heavy) were combined. The proteins were then reduced in DTT, alkylated in iodoacetamide, and purified using the SP3 paramagnetic bead approach. This was followed by overnight enzymatic digestion using trypsin (1 µg per sample) in 50 mM ammonium bicarbonate at 37 °C. The peptide solution was then purified by solid phase extraction in C18 StageTips[99].
Peptides were separated by online reverse phase liquid chromatography using the EASY-nLC 1000 system (Thermo Scientific) in a 30-cm analytical column (inner diameter: 75 μm; heated at 50 °C) packed in-house with ReproSil-Pur 120 C18-AQ 1.9-μm beads (Dr. Maisch GmbH). The gradient separation was performed through a 105-min non-linear gradient of 1.6–32% acetonitrile with 0.1% formic acid at a nanoflow rate of 225 nl/min. The eluted peptides were sprayed directly by electrospray ionization into a Q Exactive Plus Orbitrap mass spectrometer (Thermo Scientific). […]

[2] = molecular target: T1, PRPF40A WW12 (tandem WW domains, residues 141–236) (Homo sapiens, UniProt O75400); experiment: ITC of PRPF40A WW12 with GB1-tagged proline-rich peptides and constructs; format: binding; conditions: for Kd: ITC
T1 construct: WW12 141–236, WW12long 141–248, and N-ext-WW12 56–236; 6xHis-TEV site (N, cleaved yes); made in house; host or cells: Escherichia coli BL21(DE3)
T1 sequence (O75400 141-236): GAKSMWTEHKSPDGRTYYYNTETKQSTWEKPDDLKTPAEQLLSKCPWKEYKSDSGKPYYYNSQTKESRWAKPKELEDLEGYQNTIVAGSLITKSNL
Description: PRPF40A isoform 1 sequences (N-ter 1–310, WW12short 141–223, WW12 141–236, WW12long 141–248, and N-ext-WW12 56–236) were amplified from a purchased DNA fragment (IDT) and cloned using NcoI and KpnI restriction sites into a pETM11 vector encoding 6xHis and TEV cleavage site as a N-terminal tag. SF1 (Pro A 410–468, Pro B 468–539, Pro C 539–594, Pro D 594–639, Pro BC 468–594, Pro CD 539–639, Pro BCD 468–639 and Pro ABCD 410–639) and SF3A1 (Middle Pro 364–413 and C-ter Pro 552–683) constructs were prepared in a similar manner using a pET24 vector with a 6xHis, GB1 and TEV cleavage site as N-terminal fusion cassette. 16-mer SF1 constructs (Table 1) and polyproline peptides (P6, P8, P10, P13, P16, P19, P22, P25, and P29) were cloned in the same pET24 vector with GB1 tag by direct ligation of purchased oligonucleotides (Eurofins). All peptide sequences contained N and C-terminal common residues to avoid boundary effects on binding: TEVsite-GAMSGS-peptide-SGSN. Mutants of PRPF40A WW12 and N-ext-WW12 constructs were prepared by site-directed mutagenesis. The truncated version of PRPF40A WW12 (141-217) was a gift from Dr. María Macías (IRB, Spain). All used oligonucleotides were purchased from Eurofins Genomics and are shown in Supplementary Table 6.
Resuspended cell pellets in 20 mM Tris pH 8.0, 500 mM NaCl, 10 mM imidazole, 0.5 mM TCEP, and protease inhibitors mix (SERVA) were lysed by cell disruption in a French press. Clear lysates, after centrifugation (at 18,000 g) and filtering, were loaded into Ni-NTA resin. The resin was then washed with 20 mM imidazole containing buffer, and the desired protein was eluted with 500 mM imidazole. PRPF40A constructs were then subjected to TEV protease treatment (homemade at a final concentration of ≈50 μg/ml), dialyzed overnight at 4 °C against an imidazole-free buffer, and then loaded again to Ni-NTA resin; desired digested proteins were obtained in the flow-through and wash fractions while uncleaved protein, TEV protease, and impurities remained bound to the resin. Cleaved PRPF40A proteins and GB1-tagged SF1, SF3A1, and polyproline constructs were further purified by size-exclusion chromatography on a HiLoad 16/60 Superdex 75 column (GE Healthcare) equilibrated with 20 mM sodium phosphate, pH 6.5, 100 mM NaCl and 1 mM DTT buffer. For the purification of PRPF40A WW12 in complex with SF1 peptide, cell pellets of recombinant expression for both proteins were mixed and processed together following the Ni-NTA—TEV digestion—reverse Ni-NTA—SEC-75 protocol; where the complex remained bound in a 1:1 stoichiometry throughout the whole purification (corroborated by NMR). Molecular weight of each sample was confirmed by mass spectrometry, purity was checked by PAGE-SDS, and protein concentrations were determined from the aromatic contribution to the UV absorbance spectra at 280 nm.
Experiments were conducted on a MicroCAl PEAQ-ITC (Malvern Instruments, UK) at 25 °C in 20 mM sodium phosphate pH 6.5 and 100 mM NaCl. PRPF40A was titrated into N-terminal GB1 tagged SF1 or polyproline constructs and vice versa with similar results. Protein concentrations in the cell were around 20–40 μM, while in the syringe ranged between 200 and 500 μM. Experiments were performed at least in duplicate with injections of 1.5 μL (0.4 μL for first point) separated by 150 s delays to recover thermal power baseline and continuous stirring in the cell (750 rpm) for correct mixing. The reference cell was filled with water in all experiments. Data were processed by removing the blank experiment (using digested GB1 fusion protein) and adjusted to one-site binding model with Malvern PEAQ-ITC Analysis software (Malvern Instruments, UK).

PRPF40A N-ext-WW12 = experiment: NMR titration (1H-15N and 1H-13C HSQC) of N-ext-WW12 with SF1 peptides; format: binding, human; conditions: NMR titration of N-ext-WW12, ratios 1:1 up to 1:4
Description: NMR samples were prepared at concentrations ranging 100–1000 μM in buffer containing 20 mM sodium phosphate pH 6.5, 100 mM NaCl, 1 mM DTT, and 10% or 100% D2O, and measured at 25 °C (except stated otherwise) in 900-, 800-, 600- and 500-MHz Bruker Avance III NMR spectrometers equipped with cryogenic triple resonance gradient probes. Topspin 4.1.0 (Bruker) software was used for NMR data acquisition. Spectra were processed with NMRpipe 8.9[76] and analyzed using ccpnNMR Analysis 2.5 software.
^15N-labeled PRPF40A proteins (WW1, WW2, WW12, and N-extWW12) at around 100 μM concentration were titrated with increasing concentration ratios of polyproline or SF1 peptides (GB1 tagged) until reaching saturation, when possible; ^1H-^15N HSQC experiments and in some cases ^1H-^13C HSQC experiments (using double-labeled PRPF40A proteins) were acquired at each titration point. The chemical shift perturbation (CSP) was weighted using the Eqs. (1) and (2)[89].1 CSP(HN)=0.5⋅ΔδH2+0.14⋅ΔδN2 2 CSP(HC)=0.5⋅ΔδH2+0.3⋅ΔδC2

Row | Substance | Immunoprecipitation enrichment MUT vs WT, log2 FC [1] | further results
1 | CCNT1;CCNT2 | 1.3354 | 
2 | CDK9 | 1.401 | 
3 | CDK12 | 1.215 | 
4 | EFTUD2 | 1.181 | 
5 | INF2 | 1.013 | 
6 | MPPPPMGMMPPPPPPP [SF1_470–485] |  | N (sites) ([2]; ITC as E1, peptide in the cell, WW tandem in the syringe, N >1 = more than one WW tandem per peptide): 0.90 ± 0.16 sites; DH ([2]; ITC binding enthalpy, as E1): -13.6 ± 0.813 kcal/mol; Kd ([2]; 25 °C, 20 mM sodium phosphate pH 6.5, 100 mM NaCl, GB1-tagged polyproline or SF1 16-mer peptide in the cell, WW tandem in the syringe, one-site model, apparent Kd, average of at least duplicates, read-out: Kd): 13.9 ± 2.3 µM; Kd ([2]; SF1 peptides, individual value 1 (replicate 1), read-out: Kd Values with WW12, individual value): 10.9 µM; Kd ([2]; SF1 peptides, individual value 2 (replicate 2), read-out: Kd Values with WW12, individual value): 13.3 µM; Kd ([2]; SF1 peptides, individual value 3 (replicate 3), read-out: Kd Values with WW12, individual value): 14 µM; Kd ([2]; SF1 peptides, individual value 4 (replicate 4), read-out: Kd Values with WW12, individual value): 17.3 µM; displacement of the intramolecular N-terminal motifs (methyl signals Val 80, Val 129) (PRPF40A N-ext-WW12): cannot fully displace the intramolecular motifs
7 | SAE1 | 1.104 | 
8 | SNRNP200 | 1.2097 | 
9 | WIZ | 1.529 | 
